pIC50: −log10 of the molar value.
Biological target: T1, human Werner helicase (WRN-BV08, Uniprot Q14191, amino acids 517-1235 with L1074F point mutation) (Homo sapiens, UniProt Q14191, L1074F)
T1 construct: Uniprot Q14191, amino acids 517-1235 with L1074F point mutation; TEV-cleavable 8×His (C, cleaved yes); made in house; host or cells: Sf9 insect cells (baculovirus)
Assay: WRN (BV08) ADP-Glo Assay
Assay type: biochemical
Settings: 0.15 nM WRN, 5 μM ATP, 0.1 nM DNA duplex, 15 min preincubation, 60 min at 25° C., pH 7.5, 1% DMSO; read-out: ADP-Glo_hWRN_IC50
Method in brief: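 WRN 0.15 nM + cpd, 15 min 25 °C; add 5 μM ATP / 0.1 nM annealed DNA duplex; 60 min 25 °C; ADP-Glo stop, RLU. Buffer 20 mM Bicine pH 7.5, 1 mM MgCl2, 10 mM KCl, 1 mM TCEP. IC50, 4-parameter fit.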

T1 sequence (Q14191 with tags, fused parts or gaps L1074F limits assumed): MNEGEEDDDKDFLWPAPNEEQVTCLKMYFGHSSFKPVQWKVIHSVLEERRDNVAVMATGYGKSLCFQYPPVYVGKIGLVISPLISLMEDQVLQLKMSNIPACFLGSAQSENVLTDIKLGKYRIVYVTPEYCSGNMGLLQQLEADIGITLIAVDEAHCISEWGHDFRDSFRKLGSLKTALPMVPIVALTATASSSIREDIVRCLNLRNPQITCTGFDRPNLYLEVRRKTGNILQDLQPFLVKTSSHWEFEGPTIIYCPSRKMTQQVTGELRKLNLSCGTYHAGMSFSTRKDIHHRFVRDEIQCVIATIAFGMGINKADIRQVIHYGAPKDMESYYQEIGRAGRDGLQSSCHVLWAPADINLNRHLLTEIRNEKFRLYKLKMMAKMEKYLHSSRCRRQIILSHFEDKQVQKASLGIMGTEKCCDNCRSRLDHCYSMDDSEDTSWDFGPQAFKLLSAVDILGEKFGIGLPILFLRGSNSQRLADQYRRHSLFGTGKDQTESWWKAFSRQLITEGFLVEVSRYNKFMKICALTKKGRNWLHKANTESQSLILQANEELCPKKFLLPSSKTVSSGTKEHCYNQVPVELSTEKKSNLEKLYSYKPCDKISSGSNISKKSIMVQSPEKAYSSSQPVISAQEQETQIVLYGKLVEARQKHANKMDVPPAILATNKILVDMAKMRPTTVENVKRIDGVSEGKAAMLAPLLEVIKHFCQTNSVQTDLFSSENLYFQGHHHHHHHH

Structure (SMILES) | pIC50
O=C(Cc1ccc(-n2cccc2)cc1)N(Cc1ccc(C(F)(F)F)nc1)C1C=CS(=O)(=O)C1 (stereo not shown) [I-295, N-(1,1-dioxo-2,3-dihydro-1lambda6-thiophen-3-yl)-2-[4-(1H-pyrrol-1-yl)phenyl]-N-{[6-(trifluoromethyl)pyridin-3-yl]methyl}acetamide] | 4.30 to 5.00
O=C(Cc1ccc(-n2cccc2)cc1)N(Cc1cnc2ccccc2c1)C1C=CS(=O)(=O)C1 (stereo not shown) [I-296, N-(1,1-dioxo-2,3-dihydro-1lambda6-thiophen-3-yl)-2-[4-(1H-pyrrol-1-yl)phenyl]-N-[(quinolin-3-yl)methyl]acetamide] | 4.30 to 5.00
O=C(Cc1ccc(-n2cccc2)cc1)N(Cc1ccnc(-c2ccccc2)c1)C1C=CS(=O)(=O)C1 (stereo not shown) [I-297, N-(1,1-dioxo-2,3-dihydro-1lambda6-thiophen-3-yl)-N-[(2-phenylpyridin-4-yl)methyl]-2-[4-(1H-pyrrol-1-yl)phenyl]acetamide] | 5.30 to 6.30
CC(C)(O)c1cc(CN(C(=O)C2Cc3cc(-c4ccc(F)cc4)ccc3O2)C2C=CS(=O)(=O)C2)ccn1 (stereo not shown) [I-298, N-(1,1-dioxo-2,3-dihydro-1lambda6-thiophen-3-yl)-5-(4-fluorophenyl)-N-{[2-(2-hydroxypropan-2-yl)pyridin-4-yl]methyl}-2,3-dihydro-1-benzofuran-2-carboxamide] | 4.30 to 5.00
O=C(Cc1ccc(C(F)(F)F)c(Cl)c1)N(Cc1ccncc1)C1C=CS(=O)(=O)C1 (stereo not shown) [I-299, 2-[3-chloro-4-(trifluoromethyl)phenyl]-N-(1,1-dioxo-2,3-dihydro-1lambda6-thiophen-3-yl)-N-[(pyridin-4-yl)methyl]acetamide] | 4.30 to 5.00
O=C(Cc1ncc(-c2ccccc2)s1)N(Cc1ccncc1)C1C=CS(=O)(=O)C1 (stereo not shown) [I-300, N-(1,1-dioxo-2,3-dihydro-1lambda6-thiophen-3-yl)-2-(5-phenyl-1,3-thiazol-2-yl)-N-[(pyridin-4-yl)methyl]acetamide] | 4.30 to 5.00
O=C(Cc1cc2ccccc2s1)N(Cc1ccncc1)C1C=CS(=O)(=O)C1 (stereo not shown) [I-301, 2-(1-benzothiophen-2-yl)-N-(1,1-dioxo-2,3-dihydro-1lambda6-thiophen-3-yl)-N-[(pyridin-4-yl)methyl]acetamide] | 4.30 to 5.00
CC(=O)Nc1ccc(CN(C(=O)Cc2ccc(-n3cccc3)cc2)C2C=CS(=O)(=O)C2)cc1 (stereo not shown) [I-302, N-(1,1-dioxo-2,3-dihydro-1lambda6-thiophen-3-yl)-N-[(4-acetamidophenyl)methyl]-2-[4-(1H-pyrrol-1-yl)phenyl]acetamide] | 4.30 to 5.00
O=C(Cc1ccc(-n2cccc2)cc1)N(Cc1ccc(O)cc1)C1C=CS(=O)(=O)C1 (stereo not shown) [I-303, N-(1,1-dioxo-2,3-dihydro-1lambda6-thiophen-3-yl)-N-[(4-hydroxyphenyl)methyl]-2-[4-(1H-pyrrol-1-yl)phenyl]acetamide] | 4.30 to 5.00
O=C(CCc1c[nH]c2cc(Br)ccc12)N(Cc1ccncc1)C1C=CS(=O)(=O)C1 (stereo not shown) [I-304, 3-(6-bromo-1H-indol-3-yl)-N-(1,1-dioxo-2,3-dihydro-1lambda6-thiophen-3-yl)-N-[(pyridin-4-yl)methyl]propanamide] | 4.30 to 5.00
O=C(Cc1ccc(-n2ccc3ccccc32)cc1)N(Cc1ccncc1)C1C=CS(=O)(=O)C1 (stereo not shown) [I-305, N-(1,1-dioxo-2,3-dihydro-1lambda6-thiophen-3-yl)-2-[4-(1H-indol-1-yl)phenyl]-N-[(pyridin-4-yl)methyl]acetamide] | 4.30 to 5.00
O=C(CCc1c[nH]c2cc(Cl)ccc12)N(Cc1ccncc1)C1C=CS(=O)(=O)C1 (stereo not shown) [I-306, 3-(6-chloro-1H-indol-3-yl)-N-(1,1-dioxo-2,3-dihydro-1lambda6-thiophen-3-yl)-N-[(pyridin-4-yl)methyl]propanamide] | 4.30 to 5.00
CN(C)C(C(=O)N(Cc1ccnc(C(C)(C)O)c1)C1C=CS(=O)(=O)C1)c1ccc(-c2ccc(F)c(F)c2)cc1F (stereo not shown) [I-307, 2-(dimethylamino)-N-(1,1-dioxo-2,3-dihydro-1lambda6-thiophen-3-yl)-N-{[2-(2-hydroxypropan-2-yl)pyridin-4-yl]methyl}-2-{3,3′,4′-trifluoro-[1,1′-biphenyl]-4-yl}acetamide] | 4.30 to 5.00
CCc1ccc(CC(=O)N(Cc2ccncc2)C2C=CS(=O)(=O)C2)cc1 (stereo not shown) [I-308, N-(1,1-dioxo-2,3-dihydro-1lambda6-thiophen-3-yl)-2-(4-ethylphenyl)-N-[(pyridin-4-yl)methyl]acetamide] | 4.30 to 5.00
CC(C)(C)c1ccc(CC(=O)N(Cc2ccncc2)C2C=CS(=O)(=O)C2)cc1 (stereo not shown) [I-310, 2-(4-tert-butylphenyl)-N-(1,1-dioxo-2,3-dihydro-1lambda6-thiophen-3-yl)-N-[(pyridin-4-yl)methyl]acetamide] | 4.30 to 5.00
COc1cc(CN(C(=O)Cc2ccc(S(F)(F)(F)(F)F)cc2)[C@H]2C=CS(=O)(=O)C2)ccn1 [I-311, N-[(3S)-1,1-dioxo-2,3-dihydro-1lambda6-thiophen-3-yl]-N-[(2-methoxypyridin-4-yl)methyl]-2-[4-(pentafluoro-lambda6-sulfanyl)phenyl]acetamide] | < 4.30

Structure (SMILES) | pIC50
Cc1cnccc1CN(C(=O)Cc1ccc(-n2cccc2)cc1)C1C=CS(=O)(=O)C1 (stereo not shown) [I-313, N-(1,1-dioxo-2,3-dihydro-1lambda6-thiophen-3-yl)-N-[(3-methylpyridin-4-yl)methyl]-2-[4-(1H-pyrrol-1-yl)phenyl]acetamide] | 4.30 to 5.00
O=C(Cc1ccc(-n2cccc2)cc1)N(Cc1cccc(B(O)O)c1)C1C=CS(=O)(=O)C1 (stereo not shown) [I-314, (3-{[N-(1,1-dioxo-2,3-dihydro-1lambda6-thiophen-3-yl)-2-[4-(1H-pyrrol-1-yl)phenyl]acetamido]methyl}phenyl)boronic acid] | 4.30 to 5.00
O=C(Cc1ccc2ccccc2c1)N(Cc1ccncc1)C1C=CS(=O)(=O)C1 (stereo not shown) [I-315, N-(1,1-dioxo-2,3-dihydro-1lambda6-thiophen-3-yl)-2-(naphthalen-2-yl)-N-[(pyridin-4-yl)methyl]acetamide] | 4.30 to 5.00
O=C(Cc1ccc(-n2cccc2)cc1)N(Cc1cccc2nccnc12)C1C=CS(=O)(=O)C1 (stereo not shown) [I-316, N-(1,1-dioxo-2,3-dihydro-1lambda6-thiophen-3-yl)-2-[4-(1H-pyrrol-1-yl)phenyl]-N-[(quinoxalin-5-yl)methyl]acetamide] | 4.30 to 5.00
O=C(Cc1ccc(C(F)F)cc1)N(Cc1ccncc1)C1C=CS(=O)(=O)C1 (stereo not shown) [I-317, 2-[4-(difluoromethyl)phenyl]-N-(1,1-dioxo-2,3-dihydro-1lambda6-thiophen-3-yl)-N-[(pyridin-4-yl)methyl]acetamide] | 4.30 to 5.00
NC(=O)c1cccc(CN(C(=O)Cc2ccc(-n3cccc3)cc2)C2C=CS(=O)(=O)C2)c1 (stereo not shown) [I-318, 3-{[N-(1,1-dioxo-2,3-dihydro-1lambda6-thiophen-3-yl)-2-[4-(1H-pyrrol-1-yl)phenyl]acetamido]methyl}benzamide] | 4.30 to 5.00
O=C(Cc1ccc(-n2cccc2)cn1)N(Cc1ccncc1)C1C=CS(=O)(=O)C1 (stereo not shown) [I-319, N-(1,1-dioxo-2,3-dihydro-1lambda6-thiophen-3-yl)-N-[(pyridin-4-yl)methyl]-2-[5-(1H-pyrrol-1-yl)pyridin-2-yl]acetamide] | 4.30 to 5.00
Cc1scnc1-c1ccc(CC(=O)N(Cc2ccncc2)C2C=CS(=O)(=O)C2)c(F)c1 (stereo not shown) [I-320, N-(1,1-dioxo-2,3-dihydro-1lambda6-thiophen-3-yl)-2-[2-fluoro-4-(5-methyl-1,3-thiazol-4-yl)phenyl]-N-[(pyridin-4-yl)methyl]acetamide] | 4.30 to 5.00
O=C(Cc1ccc(-n2cccc2)cc1)N(Cc1ccc(B(O)O)cc1)C1C=CS(=O)(=O)C1 (stereo not shown) [I-321, (4-((2-(4-(1H-pyrrol-1-yl)phenyl)-N-(1,1-dioxido-2,3-dihydrothiophen-3-yl)acetamido)methyl)phenyl)boronic acid] | 4.30 to 5.00
CS(=O)(=O)c1ccccc1CN(C(=O)Cc1ccc(-n2cccc2)cc1)C1C=CS(=O)(=O)C1 (stereo not shown) [I-322, N-(1,1-dioxo-2,3-dihydro-1lambda6-thiophen-3-yl)-N-[(2-methanesulfonylphenyl)methyl]-2-[4-(1H-pyrrol-1-yl)phenyl]acetamide] | 4.30 to 5.00
O=C(Cc1ccc(-c2ccccc2)cc1)N(Cc1ccncc1)C1C=CS(=O)(=O)C1 (stereo not shown) [I-323, 2-{[1,1′-biphenyl]-4-yl}-N-(1,1-dioxo-2,3-dihydro-1lambda6-thiophen-3-yl)-N-[(pyridin-4-yl)methyl]acetamide] | 4.30 to 5.00
COCC(C(=O)N(Cc1ccnc(C(C)(C)O)c1)C1C=CS(=O)(=O)C1)n1cc(-c2ccccc2)cn1 (stereo not shown) [I-324, N-(1,1-dioxo-2,3-dihydro-1lambda6-thiophen-3-yl)-N-{[2-(2-hydroxypropan-2-yl)pyridin-4-yl]methyl}-3-methoxy-2-(4-phenyl-1H-pyrazol-1-yl)propanamide] | 4.30 to 5.00
O=C(Cn1cnc(-c2ccccc2)cc1=O)N(Cc1ccncc1)C1C=CS(=O)(=O)C1 (stereo not shown) [I-325, N-(1,1-dioxo-2,3-dihydro-1lambda6-thiophen-3-yl)-2-(6-oxo-4-phenyl-1,6-dihydropyrimidin-1-yl)-N-[(pyridin-4-yl)methyl]acetamide] | 4.30 to 5.00
O=C(Cn1nc(-c2ccccc2)ccc1=O)N(Cc1ccncc1)C1C=CS(=O)(=O)C1 (stereo not shown) [I-326, N-(1,1-dioxo-2,3-dihydro-1lambda6-thiophen-3-yl)-2-(6-oxo-3-phenyl-1,6-dihydropyridazin-1-yl)-N-[(pyridin-4-yl)methyl]acetamide] | 4.30 to 5.00
O=C(Cc1ccc(-n2cccc2)c(F)c1)N(Cc1ccncc1)C1C=CS(=O)(=O)C1 (stereo not shown) [I-327, N-(1,1-dioxo-2,3-dihydro-1lambda6-thiophen-3-yl)-2-[3-fluoro-4-(1H-pyrrol-1-yl)phenyl]-N-[(pyridin-4-yl)methyl]acetamide] | 4.30 to 5.00

Source: US20260297070A1, “CYCLIC [COMPOUND LEFT OUT] WRN INHIBITORS” (Nimbus Wadjet, Inc., priority 2023, published 2026)
